Reference: publication PMC7979765, “trans-Translation inhibitors bind to a novel site on the ribosome and clear Neisseria gonorrhoeae in vivo” (Nature Communications, 2021)
pIC50: −log10 of the molar value. Converted amounts (≈) assume the structure as drawn. “And” between values parts separate entries of the source, which are not always exact repeats. Identical values can stand only once.

Experiments:
Escherichia coli = assay: microbe, parasite or virus in culture; assay type: cell-based; conditions: E. coli KLE701 (ΔtolC::tet); source data, individual replicates
[1] = Liver microsome stability, murine; assay type: in vitro ADME, mouse; conditions: for Average MLMS t½ / MLMS t½: murine liver microsomes; for Average MLMS t½: average of replicates; for MLMS t½: individual replicates
Protocol: To examine potential for first-pass metabolism of analogs in the liver, the stability of analogs in the presence of liver microsome preparations (Eurofins Discovery for human, dog and rat; Xenotech for mouse) was measured using the method of Kuhnz, et al.[50]. for murine studies and Oback for the dog, human and rat studies. The amount of parent compound remaining after incubation with microsomes in the presence of NADPH over a 30 min time range was measured using a reverse-phase liquid chromatography/mass spectroscopy method that was customized for each compound. Half-lives were calculated using linear regression analysis of several time points.

Neisseria gonorrhoeae = assay: MIC, microbroth dilution, G77L medium; assay type: cell-based; conditions: Neisseria gonorrhoeae ATCC 49226; source data, individual replicates
HeLa cells [2] = assay: Mammalian cell cytotoxicity (CC50); assay type: cell-based, human; conditions: HeLa, replicates
Protocol: The half maximal cytotoxic concentration (CC50) of each compound against HeLa cells (ATCC CCL-2) was measured as previously described. […] The mean values for each biological replicate were averaged, and the CC50 was determined using a 4-parameter nonlinear curve fitting algorithm (GraphPad Prism). The average of the CC50s from two biological replicates was calculated and reported.

HeLa cells [3] = assay: Mammalian cell cytotoxicity (CC50); assay type: cell-based, human; conditions: one value per replicate
[4] = Aqueous solubility (nephelometric); assay type: physicochemical; conditions: for Solubility: single replicates
trans-translation = assay: microbe, parasite or virus in culture; assay type: cell-based, Escherichia coli; conditions: Eco Luc reporter, one value per replicate; read-out: IC50
Protocol: To verify that MBX-4132 retains activity as an inhibitor of trans-translation, we measured its dose-dependent activity against the non-stop luciferase reporter assay strain E. coli SB75 ΔtolC::kan (pluc-trpAt) essentially as described, with modifications. Briefly, serial 1.5-fold dilutions of MBX-4132 in DMSO were transferred to 96-well assay plates (Costar 3195), followed by the addition of 50 µl of an overnight culture of SB75 ΔtolC::kan (pluc-trpAt) that had been diluted to a final OD600 of 0.4 with LB media supplemented with 100 µg ampicillin/ml and 1 mM IPTG. […] The assay plates were incubated at room temperature for 2 h, and 50 µl of BrightGlo (Promega) bioluminescence reagent was added to each well. After 10 min incubation, bioluminescence intensity was measured using an Envision multi-label plate reader (Perkin Elmer). Each assay comprised three technical replicates, and the experiment was repeated three times. The fold induction for each MBX-4132 treated sample as compared to the DMSO-only sample was calculated for each technical replicate, and the average and standard deviation of the three technical was calculated. The IC50 was determined using a 4-parameter nonlinear curve fitting algorithm (GraphPad Prism).

O=C(Nc1nnc(-c2ccc(F)cc2)o1)N1CCCCC1 [MBX-4699]
MIC (Escherichia coli): 7.257 µg/mL (≈ 25 µM)
Average MLMS t½ [1]: 12 min
MLMS t½ [1]: 10.1 min and 13.2 min
MIC (Neisseria gonorrhoeae): 0.9072 µg/mL (≈ 3.13 µM)
NORMALIZED DATA (Fraction DMSO Control) (HeLa cells [2]; [CMPD] 0.78125 µM): 1.206 Fraction DMSO Control and 0.9471 Fraction DMSO Control and 1 Fraction DMSO Control
NORMALIZED DATA (Fraction DMSO Control) (HeLa cells [2]; [CMPD] 1.5625 µM): 1.141 Fraction DMSO Control and 0.9447 Fraction DMSO Control and 0.9657 Fraction DMSO Control
NORMALIZED DATA (Fraction DMSO Control) (HeLa cells [2]; [CMPD] 3.125 µM): 1.163 Fraction DMSO Control and 1.061 Fraction DMSO Control and 1.0891 Fraction DMSO Control
NORMALIZED DATA (Fraction DMSO Control) (HeLa cells [2]; [CMPD] 6.25 µM): 1.089 Fraction DMSO Control and 1.109 Fraction DMSO Control and 1.081 Fraction DMSO Control
NORMALIZED DATA (Fraction DMSO Control) (HeLa cells [2]; [CMPD] 12.5 µM): 0.7963 Fraction DMSO Control and 0.7071 Fraction DMSO Control and 0.8639 Fraction DMSO Control
NORMALIZED DATA (Fraction DMSO Control) (HeLa cells [2]; [CMPD] 25 µM): 0.8798 Fraction DMSO Control and 0.8258 Fraction DMSO Control and 0.8774 Fraction DMSO Control
NORMALIZED DATA (Fraction DMSO Control) (HeLa cells [2]; [CMPD] 50 µM): 0.9431 Fraction DMSO Control and 0.7958 Fraction DMSO Control and 0.7843 Fraction DMSO Control
NORMALIZED DATA (Fraction DMSO Control) (HeLa cells [2]; [CMPD] 100 µM): 0.7918 Fraction DMSO Control and 0.6844 Fraction DMSO Control and 0.6971 Fraction DMSO Control
CC50 (HeLa cells [3]): ≥ 100 µM
Average solubility [4]: 50 µM
Solubility [4]: 50 µM (≈ 14.5 µg/mL)

O=C(Nc1nnc(-c2ccc(F)cc2)o1)c1ccccc1 [MBXC-4227]
NORMALIZED DATA (Fraction DMSO Control) (HeLa cells [2]; [CMPD] 0.78125 µM): 0.9526 Fraction DMSO Control and 0.9482 Fraction DMSO Control and 0.9778 Fraction DMSO Control and 0.9357 Fraction DMSO Control and 0.9509 Fraction DMSO Control and 0.9608 Fraction DMSO Control
NORMALIZED DATA (Fraction DMSO Control) (HeLa cells [2]; [CMPD] 1.5625 µM): 0.9867 Fraction DMSO Control and 1.034 Fraction DMSO Control and 1.028 Fraction DMSO Control and 0.9667 Fraction DMSO Control and 0.9674 Fraction DMSO Control and 0.99 Fraction DMSO Control
NORMALIZED DATA (Fraction DMSO Control) (HeLa cells [2]; [CMPD] 3.125 µM): 1.005 Fraction DMSO Control and 1.004 Fraction DMSO Control and 0.9736 Fraction DMSO Control and 0.9997 Fraction DMSO Control and 1.016 Fraction DMSO Control and 1.006 Fraction DMSO Control
NORMALIZED DATA (Fraction DMSO Control) (HeLa cells [2]; [CMPD] 6.25 µM): 0.9644 Fraction DMSO Control and 0.9925 Fraction DMSO Control and 0.9938 Fraction DMSO Control and 0.9804 Fraction DMSO Control and 0.9921 Fraction DMSO Control and 0.9636 Fraction DMSO Control
NORMALIZED DATA (Fraction DMSO Control) (HeLa cells [2]; [CMPD] 12.5 µM): 0.8938 Fraction DMSO Control and 0.856 Fraction DMSO Control and 0.8425 Fraction DMSO Control and 0.8596 Fraction DMSO Control and 0.8611 Fraction DMSO Control and 0.8593 Fraction DMSO Control
NORMALIZED DATA (Fraction DMSO Control) (HeLa cells [2]; [CMPD] 25 µM): 0.9039 Fraction DMSO Control and 0.9304 Fraction DMSO Control and 0.9129 Fraction DMSO Control and 0.9236 Fraction DMSO Control and 0.9122 Fraction DMSO Control and 0.9801 Fraction DMSO Control
NORMALIZED DATA (Fraction DMSO Control) (HeLa cells [2]; [CMPD] 50 µM): 0.7944 Fraction DMSO Control and 0.8334 Fraction DMSO Control and 0.7734 Fraction DMSO Control and 0.7887 Fraction DMSO Control and 0.7582 Fraction DMSO Control and 0.8061 Fraction DMSO Control
NORMALIZED DATA (Fraction DMSO Control) (HeLa cells [2]; [CMPD] 100 µM): 0.6978 Fraction DMSO Control and 0.688 Fraction DMSO Control and 0.6756 Fraction DMSO Control and 0.7089 Fraction DMSO Control and 0.7199 Fraction DMSO Control and 0.7396 Fraction DMSO Control
CC50 (HeLa cells [3]): ≥ 100 µM

O=C(Nc1nnco1)c1ccc(Cl)cc1 [MBX-4367]
MIC (Escherichia coli): 22.362 µg/ml and >=22.362 µg/ml
Average MLMS t½ [1]: <5 min
MLMS t½ [1]: <5 min
MIC (Neisseria gonorrhoeae): 11.181 µg/mL (≈ 50 µM)
NORMALIZED DATA (Fraction DMSO Control) (HeLa cells [2]; [CMPD] 0.78125 µM): 1.189 Fraction DMSO Control and 0.9321 Fraction DMSO Control and 1.018 Fraction DMSO Control
NORMALIZED DATA (Fraction DMSO Control) (HeLa cells [2]; [CMPD] 1.5625 µM): 1.137 Fraction DMSO Control and 0.9966 Fraction DMSO Control and 1.019 Fraction DMSO Control
NORMALIZED DATA (Fraction DMSO Control) (HeLa cells [2]; [CMPD] 3.125 µM): 1.148 Fraction DMSO Control and 1.015 Fraction DMSO Control and 1.071 Fraction DMSO Control
NORMALIZED DATA (Fraction DMSO Control) (HeLa cells [2]; [CMPD] 6.25 µM): 1.124 Fraction DMSO Control and 0.9955 Fraction DMSO Control and 1.053 Fraction DMSO Control
NORMALIZED DATA (Fraction DMSO Control) (HeLa cells [2]; [CMPD] 12.5 µM): 1.13 Fraction DMSO Control and 1.055 Fraction DMSO Control and 1.044 Fraction DMSO Control
NORMALIZED DATA (Fraction DMSO Control) (HeLa cells [2]; [CMPD] 25 µM): 1.072 Fraction DMSO Control and 0.9837 Fraction DMSO Control and 1.014 Fraction DMSO Control
NORMALIZED DATA (Fraction DMSO Control) (HeLa cells [2]; [CMPD] 50 µM): 1.146 Fraction DMSO Control and 0.9608 Fraction DMSO Control and 0.9961 Fraction DMSO Control
NORMALIZED DATA (Fraction DMSO Control) (HeLa cells [2]; [CMPD] 100 µM): 0.9043 Fraction DMSO Control and 0.7595 Fraction DMSO Control and 0.7474 Fraction DMSO Control
pIC50 (trans-translation): ≤ 4.60
CC50 (HeLa cells [3]): ≥ 100 µM

CN(C(=O)c1ccc(Cl)cc1)c1nnc(-c2ccc(F)cc2)o1 [MBX-4076]
MIC (Escherichia coli): 8.293 µg/mL and 4.147 µg/mL and 2.073 µg/mL
MIC (Neisseria gonorrhoeae): 2.073 µg/mL (≈ 6.25 µM)
[…] (Fraction DMSO Control) (HeLa cells [2]; [CMPD] 0.78125 µM): 1.197 Fraction DMSO Control and 0.943 Fraction DMSO Control and 1.027 Fraction DMSO Control
[…] (Fraction DMSO Control) (HeLa cells [2]; [CMPD] 1.5625 µM): 1.13 Fraction DMSO Control and 0.9796 Fraction DMSO Control and 1.003 Fraction DMSO Control
[…] (Fraction DMSO Control) (HeLa cells [2]; [CMPD] 3.125 µM): 1.12 Fraction DMSO Control and 0.9889 Fraction DMSO Control and 1.051 Fraction DMSO Control
[…] (Fraction DMSO Control) (HeLa cells [2]; [CMPD] 6.25 µM): 1.086 Fraction DMSO Control and 0.9295 Fraction DMSO Control and 1.003 Fraction DMSO Control
[…] (Fraction DMSO Control) (HeLa cells [2]; [CMPD] 12.5 µM): 1.084 Fraction DMSO Control and 0.9742 Fraction DMSO Control and 1.016 Fraction DMSO Control
[…] (Fraction DMSO Control) (HeLa cells [2]; [CMPD] 25 µM): 1.061 Fraction DMSO Control and 0.9434 Fraction DMSO Control and 0.9966 Fraction DMSO Control
[…] (Fraction DMSO Control) (HeLa cells [2]; [CMPD] 50 µM): 1.042 Fraction DMSO Control and 0.8579 Fraction DMSO Control and 0.8811 Fraction DMSO Control
[…] (Fraction DMSO Control) (HeLa cells [2]; [CMPD] 100 µM): 0.7388 Fraction DMSO Control and 0.6179 Fraction DMSO Control and 0.6661 Fraction DMSO Control
CC50 (HeLa cells [3]): ≥ 100 µM
Average solubility [4]: <3.1 µM
Solubility [4]: 3.1 µM and <3.1 µM (2×)

O=C(Nc1nnc(-c2ccc(F)cc2)o1)N1CCCC1 [MBX-4346]
MIC (Escherichia coli): 27.6271 µg/mL (≈ 100 µM)
liver microsome stability (in words) [1]: limited
Average MLMS t½ [1]: 25 min
MLMS t½ [1]: 30.1 min and 20.5 min
MIC (Neisseria gonorrhoeae): 3.453 µg/mL (≈ 12.5 µM)
NORMALIZED DATA (Fraction DMSO Control) (HeLa cells [2]; [CMPD] 0.78125 µM): 1.217 Fraction DMSO Control and 0.9631 Fraction DMSO Control and 1.029 Fraction DMSO Control
NORMALIZED DATA (Fraction DMSO Control) (HeLa cells [2]; [CMPD] 1.5625 µM): 1.148 Fraction DMSO Control and 0.9904 Fraction DMSO Control and 1.014 Fraction DMSO Control
NORMALIZED DATA (Fraction DMSO Control) (HeLa cells [2]; [CMPD] 3.125 µM): 1.14 Fraction DMSO Control and 1.021 Fraction DMSO Control and 1.0883 Fraction DMSO Control
NORMALIZED DATA (Fraction DMSO Control) (HeLa cells [2]; [CMPD] 6.25 µM): 1.122 Fraction DMSO Control and 0.9837 Fraction DMSO Control and 1.041 Fraction DMSO Control
NORMALIZED DATA (Fraction DMSO Control) (HeLa cells [2]; [CMPD] 12.5 µM): 1.103 Fraction DMSO Control and 1.043 Fraction DMSO Control and 1.0247 Fraction DMSO Control
NORMALIZED DATA (Fraction DMSO Control) (HeLa cells [2]; [CMPD] 25 µM): 1.033 Fraction DMSO Control and 0.9838 Fraction DMSO Control and 0.9917 Fraction DMSO Control
NORMALIZED DATA (Fraction DMSO Control) (HeLa cells [2]; [CMPD] 50 µM): 0.972 Fraction DMSO Control and 0.8011 Fraction DMSO Control and 0.809 Fraction DMSO Control
NORMALIZED DATA (Fraction DMSO Control) (HeLa cells [2]; [CMPD] 100 µM): 0.8767 Fraction DMSO Control and 0.7312 Fraction DMSO Control and 0.7411 Fraction DMSO Control
CC50 (HeLa cells [3]): ≥ 100 µM
Average solubility [4]: >200 µM
Solubility [4]: >200 µM
